Data on one compound can be found in publication PMC9268013, “Design, Synthesis, and Biological Evaluation of N14-Amino Acid-Substituted Tetrandrine Derivatives as Potential Antitumor Agents against Human Colorectal Cancer” (Molecules, 2022).

The subject of one data set is p62/SQSTM1 (P62). As to the kind of experiment: Western blot, p62/SQSTM1 in HCT-15 cells. Format: cell-based, human. The conditions noted are these: HCT-15, 1.25, 2.5, and 5 μM, concentration-dependent, p < 0.05. Here is the method: (§1) The protein levels in HCT-15 cells were evaluated via Western blot analysis. The cells were cultured in dishes (10^7 cells per dish) and incubated overnight at 37 °C, 0.625, 1.25, 2.5, and 5 μM of 16 was added in triplicate after 24 h of incubation. Then, the cells were harvested and lysed in Laemmli buffer (glycerol, 1M TRIS pH 6.8, 1% SDS, MQ H2O and 20% β-mercaptoethanol). The samples were boiled for 5 min at 95 °C, and the protein content was determined using a BCA kit. Equal amounts of 30 μg of sample were placed on a Tris/HCl gel and separated by SDS-PAGE electrophoresis. Then, the samples were transferred to a PVDF membrane (Milibo, Co., Ltd., Billyka, MA, USA) and blocked with 5% skimmed milk powder for 2 h. Diluted primary antibodies Bcl-2 (1:3000), Bax (1:10,000), caspase-3 (l:2000), p62 (1:1000), Beclin1 (1:1000), LC3 (1:2000), and β-actin (1:1000) were incubated overnight at 4 °C, followed by a horseradish peroxidase-conjugated goat anti-rabbit IgG secondary antibody (ProteinTech, China) for 2 h at room temperature. Then, immunoreactivity was developed with diaminobenzidine solution, and scanned and recorded by a gel imaging system (G:BOX Chemi XL1.4, Frederick, MD, USA).
In general terms: In western blotting, separated proteins are transferred to a membrane and probed.

Data set [1] can be described thus: Live/dead FDA/PI double staining, HUVEC. It is filed as cell-based. The conditions noted are these: human, HUVEC cells, read-out: Viable cell percentage. Here is the method: HCT-15 or HUVEC cells were cultured in six-well plates for 24 h. The cells were washed with PBS and incubated with medium containing 0.625, 1.25, 2.5, 5, and 10 μM of 16 for 48 h. Afterwards, the medium was replaced, and the cells were washed twice with PBS, resuspended in the solution containing 100 μL FDA (0.02 mg/mL, Sigma, St. Louis, MO, USA) and 30 μL PI (0.02 mg/mL, Sigma, St. Louis, MO, USA), and treated in the dark at room temperature for 10 min. The cells were imaged with a fluorescence microscope (Nikon ECLIPSE TE2000-U, Tokyo, Japan).

The test system of data set [2] is human pancreatic cancer cells (BxPC-3). In words: MTT antiproliferative assay, BxPC-3. Format: cell-based. How it is done: Human lung cancer cell (A549,), human umbilical vein endothelial cells (HUVECs,), human colon cancer cell lines (HCT-15), human breast cancer cells (MCF-7), human liver cancer cells (HepG2), human pancreatic cancer cells (BxPC-3), and human hepatic cell line (L-02) were obtained from the Sichuan University. A549, HUVECs, and L-02 were cultured in DMEM medium (high glucose, HyClone, GE Healthcare, Sydney, Australia). Human colon cancer cell lines HCT-15, human pancreatic cancer cells […] BxPC-3 were cultured in RPMI-1640. Human breast cancer cells MCF-7 and human liver cancer cells HepG2 were cultured in MEM medium. All the mediums, including 10% fetal bovine serum (FBS, HyClone, GE Healthcare, Sydney, Australia) and 1% ampicillin/streptomycin, were used to culture the above cells at 37 °C in a humidified atmosphere (5% CO2 and 95% air).
The antiproliferative activity of the title compounds was determined using the MTT (3-(4,5-dimethylthiazol-2-yl)-2,5-diphenyltetrazolium bromide, Sigma-Aldrich, Saint Louis, MO, USA) assay on different cells. Cells lines were seeded into 96-well plates at a density of 2000 to 6000 cells/well. DMSO was used to dissolve the test compounds, and TET was used as a positive control. After 24 h, the test compounds were added at different concentrations (0.625, 1.25, 2.5, 5, 10, and 20 μM) and incubated at 37 °C for 72 h. MTT was added to each well at a final concentration of 0.5 mg/mL and incubated at 37 °C for 4 h. Then, 150 μL of DMSO was added to each well to dissolve the formazan crystals. The absorbance was measured at 570 nm by a microplate reader (ELX800UV, Bio-Tek, Windoski, VT, USA). All measurements were repeated at least three times under the same conditions. Graphpad Prism 8.0 was used to calculate the IC50 values.

Data set [3] deals with microtubule-associated protein 1 light chain 3 (LC3). As to the kind of experiment: Western blot, LC3-II/LC3-I in HCT-15 cells. It is filed as cell-based, human. The conditions noted are these: HCT-15, 0.625, 1.25, 2.5, and 5 μM, p < 0.05. Here is the method: as §1
Data set [4] concerns HCT-15 cells. In words: Cell cycle analysis by flow cytometry. Format: cell-based, human. The conditions noted are these: HCT-15, 1.25, 2.5, and 5 μM, 24 h. Here is the method:
HCT-15 cells were cultured in six-well plates overnight at 37 °C. The cells were treated with 1.25, 2.5, 5 μM of 16 or DMSO and incubated for 24 h. Afterwards, the cells were harvested, and 70% ice cold ethanol was used to fix cells at 4 °C. Subsequently, the cells were centrifuged to remove the fixative solution, washed twice with PBS, and exposed to 500 μL of PI/RNase working solution (Keygen Biotech, Nanjing, China) at 4 °C for 30 min in the dark. The cell cycle distribution was analyzed by flow cytometry.
For orientation: Flow cytometry measures light scatter and fluorescence of single cells or particles in a stream.

In data set [5] the test system is HCT-15 cells. In words: Flow cytometry Annexin V-FITC/PI apoptosis analysis. Format: cell-based, human. To be noted: 48 h. How it is done:
HCT-15 cells were cultured in complete medium in six-well plates for 24 h, and […]. 2.5, 5 μM of 16 was added in triplicate for 48 h incubation. The cells were digested with trypsin without EDTA, washed twice with cold PBS, and resuspended in 500 μL binding buffer. The cell suspension was stained successively with 5 μL Annexin V-FITC and 5 μL PI (Keygen Biotech, Nanjing, China), and cultured for 15 min and 5 min in total dark, respectively. Afterwards, the percentages of apoptotic cells were determined by a flow cytometry. Data were analyzed by FlowJo software (Version 10, FlowJo, LLC, Ashland, OR, USA).

In a further data set the test system is Beclin-1. In words: Western blot, Beclin-1 in HCT-15 cells. Format: cell-based, human. The conditions noted are these: HCT-15, increasing concentration, p < 0.01. How it is done: as §1
In data set [6] the test system is HCT-15 cells. In words: Wound healing (migration) assay, HCT-15. Format: cell-based, human. To be noted: 24 h, control approximately 46%. How it is done:
HCT-15 cells or HUVECs were seeded in six-well culture plates and allowed to grow to 80–90% confluence. Subsequently, a cell-free line was manually created by scratching the confluent cell monolayers with a 200 μL sterile pipette tip, and the detached cells were washed with PBS. The cells were then incubated with 10% FBS and different concentrations of 16 (0.625, 1.25, 2.5, 5, and 10 μM). Then, 24 h later, images of the same location were obtained using a microscope (Nikon ECLIPSE TE2000-U, Tokyo, Japan). Each experiment was carried out at least three times.

The term IC50 denotes the point on the concentration scale where inhibition reaches its midpoint. As to `COc1cc(NC(=O)[C@@H]2CCCN2)c2cc1Oc1ccc(cc1)C[C@H]1c3cc(c(OC)cc3CCN1C)Oc1c(OC)c(OC)cc3c1[C@H](C2)N(C)CC3` [Compound 16, 14-N-(L-proline)-tetrandrine], the P62 contents result in the data set with p62/SQSTM1 (P62) is recorded as “significantly lessened”. The viability at 48 h, 5 µM in data set [1] (5 μM) was found to be 1.9%. The viability at 48 h, 10 µM in data set [1] (10 μM) is 0.1%. The IC50 is 1.12 ± 0.1 µM in data set [2] (72 h) and under 1.5 µM in data set [2] (Homo sapiens, BXPC-3, 72 h). Moreover, the “Ratio of LC3-II to LC3-I” value in data set [3] is reported as “increased”. Besides, in the data set on HCT-15 cells [4], the “Effect on cell cycle redistribution” value was “no significant influence on cell cycle redistribution”. For the same compound, the Apoptotic rate was found to be 25.4% with HCT-15 cells [5] (HCT-15, 2.5 μM) and 52.7% in the data set with HCT-15 cells [5] (HCT-15, 5 μM). Besides, the Necrotic rate in the data set on HCT-15 cells [5] (HCT-15, 5 μM) is reported as 35.5%. Moreover, the Beclin-1 level result in the data set on Beclin-1 is reported as “markedly enhanced”. Moreover, the “Scratched area covered (migration rate)” value in the data set on HCT-15 cells [6] (HCT-15, 5 μM) is recorded as 14.1%; in the data set on HCT-15 cells [6] (HCT-15, 10 μM), 10.5%.
